In patent US5466717A, “Halogenated 4'-methoxyacetophenones as microbicides and preservatives” (Buckman Laboratories Int'l, Inc., priority 1993, dated 1995):
Read-outs that look alike come from different tables or passages of the source.

Columns and labels:
Aspergillus niger = assay: Inhibition of Aspergillus niger, modified pulp substrate method (Table 3); assay type: cell-based; design: key: 4: excellent; 3: good; 2: poor; 1: very poor, scant, questionable; 0: no growth; conditions: pH 4.5 to 5.0
Experimental: The growth inhibiting activity of compounds 1 and 2 on the fungus Aspergillus niger was evaluated. A variation of the pulp substrate method of Example 2 was used.
When fungi are used as test organisms, the pulp-substrate test method is modified to permit the growth of fungi. The pulp substrate comprises an aqueous slurry of spruce groundwood containing 1 percent by weight (dry basis) of wood fibers enriched by the addition of 0.26 percent of sodium nitrate and 0.64 percent of maltose (technical grade). Forty-gram portions of the enriched groundwood pulp slurry were added to 250 mL Erlenmeyer flasks fitted with loose metal caps and were then sterilized. Each of the following substances was then added to the flasks in the order listed:
(1) Sterile, demineralized water as required in each individual case was added to bring the total weight of the contents of each flask to 50 grams, after allowing for all subsequent additions specified hereinafter (including inoculation with the aqueous suspension of spores and/or mycelial fragments of the test fungus).
(2) One milliliter of a 2.0 percent by weight sterile solution of rosin size. Rosin size is the pasty sodium soap of rosin containing approximately 20 to 30 percent free rosin and 30 percent water. A suitable rosin size is that known as rosin size 70D made by Papermaker's Chemical Department, Hercules, Inc., Kalamazoo, Mich.
(3) A solution of the toxicant or control agent to be evaluated in each test, to give the concentration desired in parts per million by weight.
(4) A sterile solution of buffer salts to adjust the substrate to a pH of 4.5 to 5.0, prepared from 0.2M solutions of potassium acid phthalate and sodium hydroxide. The buffer mixtures were prepared according to the procedures set forth in U.S. Pat. No. 2,881,070.
(5) Inoculum consisting of 1 milliliter of an aqueous suspension of spores and/or mycelial fragments of the test organism, Aspergillus niger.
After the inoculant suspensions of the test fungi were added, the flasks were incubated at a temperature of 30°±1° C. for a period adequate for growth to occur in the controls (portions of inoculated pulp substrate which contained no toxicant). The customary periods of incubation were 7 and 14 days. Growth was recorded after each period on the basis of the following key: […]

[1] = tested on: Aspergillus sp., Aureobasidium sp., Trichoderma sp., Penicillium sp., and Chaetomium sp.; assay: Resistance to growth of mold on the surface of interior coatings in an environmental chamber, ASTM D3273-86 (Table 4); design: key: 10: no mold growth; 9: very slight mold growth; 8: slight growth; 7: slight to medium growth; 6: slight to medium growth; 5: failure (extensive growth)
Experimental: A standard method to determine the resistance to growth of mold on the surface of interior coatings in an environmental chamber, ASTM method D3273-86, was used to determine the effectiveness of compounds 1 and 2.
Treatments were prepared by dissolving 2.0 g of the compounds of the present invention in 10 mL of acetone/methanol. Two types of paint were used: namely, an alkyd (self-priming white with Beckasol 296-70) and a latex (self-priming, alkyd-modified acrylic paint). […] Each sample was shaken vigorously for 5 minutes using a standard paint shaker.
Blocks of drywall having two inch by four inch dimensions were painted on the front surface and on all edges with two coats of the respective treatments. After drying, the back side was painted with one coat of clear latex. A hole was drilled half-way through the block at one end, and duplicate blocks per treatment were hung in an environmental chamber.
The aggressive nature of the interior of the chamber was developed by inoculating trays of moist potting soil with active cultures of Aspergillus sp., Aureobasidium sp., Trichoderma sp., Penicillium sp., and Chaetomium sp. The chamber was maintained at 100 percent relative humidity and 32° C. Final observations were made after four weeks (for latex blocks) or eight weeks (for alkyd blocks).

Enterobacter aerogenes = assay: Pulp substrate method, percent kill of E. aerogenes (Table 2); assay type: cell-based; conditions: for killing at 1 ppm / killing at 2 ppm / killing at 4 ppm / killing at 8 ppm / killing at 10 ppm / killing at 15 ppm / killing at 20 ppm / killing at 25 ppm: Klebsiella aerogenes, pulp substrate, read-out: % Kill of E. aerugenes; for bactericidal activity (in words): at both neutral and alkaline pH, conclusion from Table 2 (E. aerogenes and P. aeruginosa)
Experimental: Compounds 1 and 2 were tested by the pulp substrate method described in detail in U.S. Pat. No. 2,881,070, column 5, line 12--column 6, line 53. The disclosure of U.S. Pat. No. 2,881,070 is specifically incorporated here by reference. […] The tests utilized Enterobacter aerogenes and Pseudomonas aeruginosa in pulp substrates that had been buffered at pH 7.0 and 8.0.

[2] = 0.01 % by weight, alkyd, eight weeks
[3] = 0.01 % by weight, latex, four weeks
[4] = 0.025 % by weight, alkyd, eight weeks
[5] = 0.025 % by weight, latex, four weeks
[6] = 0.05 % by weight, alkyd, eight weeks
[7] = 0.05 % by weight, latex, four weeks
[8] = 0.10 % by weight, alkyd, eight weeks
[9] = 0.10 % by weight, latex, four weeks
[10] = 0.25 % by weight, alkyd, eight weeks
[11] = 0.25 % by weight, latex, four weeks
[12] = 0.50 % by weight, alkyd, eight weeks
[13] = 0.50 % by weight, latex, four weeks

| SMILES | Inhibition of Aspergillus niger, growth after 14 days (Aspergillus niger; 5 ppm) | Inhibition of Aspergillus niger, growth after 14 days (Aspergillus niger; 10 ppm) | Inhibition of Aspergillus niger, growth after 14 days (Aspergillus niger; 25 ppm) | Inhibition of Aspergillus niger, growth after 14 days (Aspergillus niger; 100 ppm) | Growth of mold on the surface of interior coatings [1, 2] | Growth of mold on the surface of interior coatings [1, 3] | Growth of mold on the surface of interior coatings [1, 4] | Growth of mold on the surface of interior coatings [1, 5] | Growth of mold on the surface of interior coatings [1, 6] | Growth of mold on the surface of interior coatings [1, 7] | Growth of mold on the surface of interior coatings [1, 8] | Growth of mold on the surface of interior coatings [1, 9] | Growth of mold on the surface of interior coatings [1, 10] | Growth of mold on the surface of interior coatings [1, 11] | Growth of mold on the surface of interior coatings [1, 12] | Growth of mold on the surface of interior coatings [1, 13] | killing at 1 ppm (Enterobacter aerogenes; pH 7.0) [%] | killing at 1 ppm (Enterobacter aerogenes; pH 8.0) [%] | killing at 2 ppm (Enterobacter aerogenes; pH 7.0) [%] | killing at 2 ppm (Enterobacter aerogenes; pH 8.0) [%] | other results |
| --- | --- | --- | --- | --- | --- | --- | --- | --- | --- | --- | --- | --- | --- | --- | --- | --- | --- | --- | --- | --- | --- |
| COc1ccc(C(=O)CBr)cc1Br [Compound 1, 2,3'-dibromo-4'-methoxyacetophenone] | 4 | 2 | 0 | 0 | 5 | 8 | 5 | 8 | 6 | 9 | 6 | 9 | 7 | 10 | 7 | 10 | 31 | 73 | 25 | 81 | killing at 4 ppm (Enterobacter aerogenes; pH 7.0): 38%; killing at 4 ppm (Enterobacter aerogenes; pH 8.0): 93%; killing at 8 ppm (Enterobacter aerogenes; pH 7.0): 0%; killing at 8 ppm (Enterobacter aerogenes; pH 8.0): 97%; killing at 10 ppm (Enterobacter aerogenes; pH 7.0): 10%; killing at 10 ppm (Enterobacter aerogenes; pH 8.0): 92%; killing at 15 ppm (Enterobacter aerogenes; pH 7.0): 18%; killing at 15 ppm (Enterobacter aerogenes; pH 8.0): 99.8%; killing at 20 ppm (Enterobacter aerogenes; pH 7.0): 96%; killing at 20 ppm (Enterobacter aerogenes; pH 8.0): 100%; killing at 25 ppm (Enterobacter aerogenes; pH 7.0): 99%; killing at 25 ppm (Enterobacter aerogenes; pH 8.0): 97.8%; bactericidal activity (in words) (Enterobacter aerogenes): good bactericides |
| COc1ccc(C(=O)C(Br)Br)cc1Br [Compound 2, 2,2,3'-tribromo-4'-methoxyacetophenone] | 4 | 2 | 0 | 0 | 5 | 9 | 5 | 10 | 6 | 10 | 8 | 10 | 10 | 10 | 10 | 10 | 12 | 9 | 22 | 43 | killing at 4 ppm (Enterobacter aerogenes; pH 7.0): 41%; killing at 4 ppm (Enterobacter aerogenes; pH 8.0): 83%; killing at 8 ppm (Enterobacter aerogenes; pH 7.0): 35%; killing at 8 ppm (Enterobacter aerogenes; pH 8.0): 91%; killing at 10 ppm (Enterobacter aerogenes; pH 7.0): 39%; killing at 10 ppm (Enterobacter aerogenes; pH 8.0): 89%; killing at 15 ppm (Enterobacter aerogenes; pH 7.0): 52%; killing at 15 ppm (Enterobacter aerogenes; pH 8.0): 96%; killing at 20 ppm (Enterobacter aerogenes; pH 7.0): 45%; killing at 20 ppm (Enterobacter aerogenes; pH 8.0): 98%; killing at 25 ppm (Enterobacter aerogenes; pH 7.0): 51%; killing at 25 ppm (Enterobacter aerogenes; pH 8.0): 99%; bactericidal activity (in words) (Enterobacter aerogenes): good bactericides |
